According to patent US20160031855A1, “PROTEIN KINASE INHIBITORS” (ORION CORPORATION, priority 2013, published 2016):
Counter-ions that a name gives are not always drawn.

Target: T1, FGFR1 kinase (Homo sapiens, UniProt P11362)
T1 construct: purchased Upstate, USA
Assay: TR-FRET assay with FGFR1 kinase
Type: biochemical
Conditions: 13 μM ATP; for IC50: dose response, read-out: IC50 of FGFR1 inhibition; for inhibition at 1 µM / Inhibition (%) of FGFR1 at 1000 nM: compound at 1000 nM
Protocol: 1. Inhibition of FGFR1 kinase
Compounds were screened in the TR-FRET assay with FGFR1 kinase. 5 ng of FGFR1 [Upstate, USA] kinase was used for assay. The compound was incubated with the kinase for 30 minutes at room temperature. After the incubation, substrate mix [40 nM Ultra light poly GT (Perkin Elmer, USA) and 13 μM ATP (Sigma)] was added. The above reaction was stopped by the addition of 40 mM EDTA after the 30 min kinase reaction. The Eu-labelled antiphospho-tyrosine antibody [Perkin Elmer, USA] was added at 0.5 nM and the fluorescence emission at 615 nm/665 nm [excitation at 340 nm] was measured. The compounds were initially screened at 100 nM and 1 μM concentrations. The compounds with >50% inhibition at 100 nM of FGFR1 were taken for the full dose response studies. The final DMSO concentration in the assay was 1%. For IC50 determination, ⅓^rd serial dilution was made from the 20 mM DMSO stock solution. 2 μl of these were transferred to the test wells containing […] of the reaction mixture [total reaction volume 20 μl]. The fluorescence was measured in Perkin Elmer Wallac 1420 Multilabel Counter Victor 3. The IC50 was determined by fitting the dose response data to sigmoidal curve fitting equation using GraphPad Prism software V5.

T1 sequence (P11362 22-822): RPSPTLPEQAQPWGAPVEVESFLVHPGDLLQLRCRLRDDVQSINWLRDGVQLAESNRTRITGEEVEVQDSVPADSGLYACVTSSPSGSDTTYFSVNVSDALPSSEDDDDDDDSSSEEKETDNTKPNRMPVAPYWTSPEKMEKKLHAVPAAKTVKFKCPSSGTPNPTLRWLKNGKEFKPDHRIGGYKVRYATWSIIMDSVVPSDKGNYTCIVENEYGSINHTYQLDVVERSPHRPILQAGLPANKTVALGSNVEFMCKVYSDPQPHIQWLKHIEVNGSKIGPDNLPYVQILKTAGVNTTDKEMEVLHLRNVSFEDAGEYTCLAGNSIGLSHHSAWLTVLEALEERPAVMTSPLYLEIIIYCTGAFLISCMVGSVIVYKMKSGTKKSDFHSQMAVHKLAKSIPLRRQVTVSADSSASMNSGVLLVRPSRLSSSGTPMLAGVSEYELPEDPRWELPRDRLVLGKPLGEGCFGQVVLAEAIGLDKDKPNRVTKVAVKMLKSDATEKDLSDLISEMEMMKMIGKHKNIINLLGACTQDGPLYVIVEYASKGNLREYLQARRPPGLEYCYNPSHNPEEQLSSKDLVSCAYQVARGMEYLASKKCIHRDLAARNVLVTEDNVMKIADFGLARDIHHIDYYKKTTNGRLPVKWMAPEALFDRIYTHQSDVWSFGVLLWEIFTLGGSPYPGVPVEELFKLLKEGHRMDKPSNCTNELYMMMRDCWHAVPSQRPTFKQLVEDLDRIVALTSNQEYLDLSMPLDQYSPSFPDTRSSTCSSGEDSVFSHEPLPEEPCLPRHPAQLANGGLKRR

IC50 [nM] | inhibition at 1 µM [%] | Inhibition (%) of FGFR1 at 1000 nM [%] | SMILES
1.7 | 99 | – | CC(C)S(=O)(=O)Nc1cc(-c2ccc(F)cc2F)cc(-n2cnc3cc(-c4cnn(C)c4)ccc32)n1 [Example 6, N-(4-(2,4-difluorophenyl)-6-(5-(1-methyl-1H-pyrazol-4-yl)-1H-benzo[d]-imidazol-1-yl)pyridin-2-yl)propane-2-sulfonamide]
3.3 | – | 97 | Cn1cc(-c2ccc3c(c2)ncn3-c2cc(-c3ccccc3F)cc(NS(=O)(=O)C3CC3)n2)cn1 [Example 8 (imido), Sodium salt of imido form of N-(4-(2-fluorophenyl)-6-(5-(1-methyl-1H-pyrazol-4-yl)-1H-benzo[d]imidazol-1-yl)pyridin-2-yl)cyclopropanesulfonamide]
5.8 | 97 | – | Cn1cc(-c2ccc3c(c2)ncn3-c2cc(-c3ccccc3F)cc(NS(C)(=O)=O)n2)cn1 [Example 10, N-(4-(2-fluorophenyl)-6-(5-(1-methyl-1H-pyrazol-4-yl)-1H-benzo[d]imidazol-1-yl)pyridin-2-yl)methanesulfonamide]
3.4 | 97 | – | Cn1cc(-c2ccc3c(c2)ncn3-c2cc(-c3ccc(F)cc3)cc(NS(C)(=O)=O)n2)cn1 [Example 16, N-(4-(4-fluorophenyl)-6-(5-(1-methyl-1H-pyrazol-4-yl)-1H-benzo[d]imidazol-1-yl)pyridin-2-yl)methanesulfonamide]
3.9 | 99 | – | Cn1cc(-c2ccc3c(c2)ncn3-c2cc(-c3ccc(F)cc3F)cc(NS(=O)(=O)C3CC3)n2)cn1 [Example 2, N-(4-(2,4-difluorophenyl)-6-(5-(1-methyl-1H-pyrazol-4-yl)-1H-benzo[d]-imidazol-1-yl)pyridin-2-yl)cyclopropanesulfonamide]
293 | 76 | – | Cn1cc(-c2ccc3c(c2)ncn3-c2cc(-c3ccc(F)cc3OC(F)F)cc(NS(=O)(=O)C3CC3)n2)cn1 [Example 40, N-(4-(2-(difluoromethoxy)-4-fluorophenyl)-6-(5-(1-methyl-1H-pyrazol-4-yl)-1H-benzo[d]imidazol-1-yl)pyridin-2-yl)cyclopropanesulfonamide]
1.5 | 97 | – | CC(C)S(=O)(=O)Nc1cc(-c2ccccc2F)cc(-n2cnc3cc(-c4cnn(C)c4)ccc32)n1 [Example 12, N-(4-(2-fluorophenyl)-6-(5-(1-methyl-1H-pyrazol-4-yl)-1H-benzo[d]imidazol-1-yl)pyridin-2-yl)propane-2-sulfonamide]
1.3 | 99 | – | Cn1cnc(-c2ccc3c(c2)ncn3-c2cc(-c3ccc(F)cc3F)cc(NS(=O)(=O)C3CC3)n2)c1 [Example 37, N-(4-(2,4-difluorophenyl)-6-(5-(1-methyl-1H-imidazol-4-yl)-1H-benzo[d]-imidazol-1-yl)pyridin-2-yl)cyclopropanesulfonamide]
28.5 | 96 | – | CC(=O)Nc1cc(-c2ncccc2F)cc(-n2cnc3cc(-c4cnn(C)c4)ccc32)n1 [Example 19, N-(3-fluoro-6′-(5-(1-methyl-1H-pyrazol-4-yl)-1H-benzo[d]imidazol-1-yl)-[2,4′-bipyridin]-2′-yl)acetamide]
4.3 | 98 | – | Cn1cc(-c2ccc3c(c2)ncn3-c2cc(-c3ccc(F)cc3F)cc(NS(C)(=O)=O)n2)cn1 [Example 4, N-(4-(2,4-difluorophenyl)-6-(5-(1-methyl-1H-pyrazol-4-yl)-1H-benzo[d]-imidazol-1-yl)pyridin-2-yl)methanesulfonamide]
24 | 96 | – | Cn1cc(-c2ccc3c(c2)ncn3-c2cc(-c3ccc(F)cn3)cc(NS(=O)(=O)C3CC3)n2)cn1 [Example 30, N-(5-fluoro-6′-(5-(1-methyl-1H-pyrazol-4-yl)-1H-benzo[d]imidazol-1-yl)-[2,4′-bipyridin]-2′-yl)cyclopropanesulfonamide]
21.7 | 99 | – | O=S(=O)(Nc1cc(-c2ccc(F)cc2F)cc(-n2cnc3cc(-n4ccnc4)ccc32)n1)C1CC1 [Example 32, N-(6-(5-(1H-imidazol-1-yl)-1H-benzo[d]imidazol-1-yl)-4-(2,4-difluorophenyl)-pyridin-2-yl)cyclopropanesulfonamide]
5 | – | 97 | Cn1cc(-c2ccc3c(c2)ncn3-c2cc(-c3ncccc3F)cc(NS(=O)(=O)C3CC3)n2)cn1 [Example 18, N-(3-fluoro-6′-(5-(1-methyl-1H-pyrazol-4-yl)-1H-benzo[d]imidazol-1-yl)-[2,4′-bipyridin]-2-yl)cyclopropanesulfonamide]
9.2 | 97 | – | Cn1cc(-c2ccc3c(c2)ncn3-c2cc(-c3ccccc3F)nc(NS(=O)(=O)C3CC3)n2)cn1 [Example 22, N-(4-(2-fluorophenyl)-6-(5-(1-methyl-1H-pyrazol-4-yl)-1H-benzo[d]imidazol-1-yl)pyrimidin-2-yl)cyclopropanesulfonamide]
10 | 97 | – | O=S(=O)(Nc1cc(-c2ccc(F)cc2F)cc(-n2cnc3cc(-n4cccn4)ccc32)n1)C1CC1 [Example 23, N-(6-(5-(1H-pyrazol-1-yl)-1H-benzo[d]imidazol-1-yl)-4-(2,4-difluorophenyl)-pyridin-2-yl)cyclopropanesulfonamide]
7.2 | 97 | – | Cn1cc(-c2ccc3c(c2)ncn3-c2cc(-c3ccccc3Cl)cc(NS(=O)(=O)C3CC3)n2)cn1 [Example 28, N-(4-(2-chlorophenyl)-6-(5-(1-methyl-1H-pyrazol-4-yl)-1H-benzo[d]imidazol-1-yl)pyridin-2-yl)cyclopropanesulfonamide]
9.7 | 97 | – | Cn1cc(-c2ccc3c(c2)ncn3-c2cc(-c3ncccc3Cl)cc(NS(=O)(=O)C3CC3)n2)cn1 [Example 29, N-(3-chloro-6′-(5-(1-methyl-1H-pyrazol-4-yl)-1H-benzo[d]imidazol-1-yl)-[2,4′-bipyridin]-2′-yl)cyclopropanesulfonamide]
16.5 | 97 | – | Cn1cc(-c2ccc3c(c2)ncn3-c2cc(-c3ccc(F)cc3F)cc(Nc3ccn(C)n3)n2)cn1 [Example 1, 4-(2,4-Difluorophenyl)-N-(1-methyl-1H-pyrazol-3-yl)-6-(5-(1-methyl-1H-pyrazol-4-yl)-1H-benzo[d]imidazol-1-yl)pyridin-2-amine]
4.6 | 96 | – | CC(C)S(=O)(=O)Nc1cc(-c2ccc(F)cc2)cc(-n2cnc3cc(-c4cnn(C)c4)ccc32)n1 [Example 17, N-(4-(4-fluorophenyl)-6-(5-(1-methyl-1H-pyrazol-4-yl)-1H-benzo[d]imidazol-1-yl)pyridin-2-yl)propane-2-sulfonamide]
12 | 87 | – | CC(=O)Nc1nc(-c2ccc(F)cc2F)cc(-n2cnc3cc(-c4cnn(C)c4)ccc32)n1 [Example 38, N-(4-(2,4-difluorophenyl)-6-(5-(1-methyl-1H-pyrazol-4-yl)-1H-benzo[d]-imidazol-1-yl)pyrimidin-2-yl)acetamide]
5.2 | – | 97 | CC(C)S(=O)(=O)Nc1cc(-c2ccc(F)cc2)cc(-n2cnc3cc(-c4cnn(C)c4)ccc32)n1 [Example 17 (imido), Sodium salt of imido form: of N-(4-(4-fluorophenyl)-6-(5-(1-methyl-1H-pyrazol-4-yl)-1H-benzo[d]imidazol-1-yl)pyridin-2-yl)propane-2-sulfonamide]
2 | 99 | – | CCn1cc(-c2ccc3c(c2)ncn3-c2cc(-c3ccc(F)cc3F)cc(NS(=O)(=O)C3CC3)n2)nn1 [Example 35, N-(4-(2,4-difluorophenyl)-6-(5-(1-ethyl-1H-1,2,3-triazol-4-yl)-1H-benzo[d]-imidazol-1-yl)pyridin-2-yl)cyclopropanesulfonamide]
32.7 | 93 | – | Cn1cc(-c2ccc3c(c2)ncn3-c2cc(-c3ccc(F)cc3F)nc(NS(=O)(=O)C3CC3)n2)cn1 [Example 41, N-(4-(2,4-difluorophenyl)-6-(5-(1-methyl-1H-pyrazol-4-yl)-1H-benzo[d]-imidazol-1-yl)pyrimidin-2-yl)cyclopropanesulfonamide]
3.2 | – | 98 | CCS(=O)(=O)Nc1cc(-c2ccccc2F)cc(-n2cnc3cc(-c4cnn(C)c4)ccc32)n1 [Example 11 (imido), Sodium salt of imido form of N-(4-(2-fluorophenyl)-6-(5-(1-methyl-1H-pyrazol-4-yl)-1H-benzo[d]imidazol-1-yl)pyridin-2-yl)ethanesulfonamide]
14.4 | 98 | – | Cn1cc(-c2ccc3c(c2)ncn3-c2cc(-c3ccc(F)cc3)cc(NS(=O)(=O)C3CC3)n2)cn1 [Example 14]
1.1 | 99 | – | CCS(=O)(=O)Nc1cc(-c2ccc(F)cc2F)cc(-n2cnc3cc(-c4cnn(C)c4)ccc32)n1 [Example 5, N-(4-(2,4-difluorophenyl)-6-(5-(1-methyl-1H-pyrazol-4-yl)-1H-benzo[d]-imidazol-1-yl)pyridin-2-yl)ethanesulfonamide]
